The numbers were not newly measured in US20170304164A1, “COMPOSITIONS, APPARATUS AND METHODS FOR MONITORING AND IMPROVING ORAL HEALTH” (Berkeley NOX Limited, priority 2016, published 2017), which cites them from elsewhere.

One series concerns Desulfovibrio spp. Particulars: 0.2 mM nitrate.
For the next series, the system named is Streptococcus mutans. As to conditions: 0.2 mM nitrite, acidity levels below pH 7.
The subject of a further series is Fusobacterium nucleatum. Particulars: under acidic conditions.
For the next series, the system named is Eikenella corrodens. As to conditions: under acidic conditions.
The subject of the next series is Porphyromonas gingivalis. As to conditions: under acidic conditions.

On to `O=[N+]([O-])O` [nitrate], for which the growth result with Desulfovibrio spp. is “growth is inhibited”.
As to `O=NO` [nitrite], in the series on Streptococcus mutans, the effect on bacteria result is “effective complete killing”. The growth result in the series with Fusobacterium nucleatum, with Eikenella corrodens and in the series on Porphyromonas gingivalis was “inhibited the growth” in each case.
